{
  "source": "patent US20040038861A1",
  "about": "“Methods and compositions for normalizing lipid levels in mammalian tissues” (priority 2001, published 2004)",
  "key": {"soleus muscle [1]": {"system": "soleus muscle", "assay": "Masoprocol effect on CGRP1-evoked NEFA and triglyceride contents in soleus muscle from high fat-fed rats", "type": "cell-based, rat", "conditions": "50 μM masoprocol with 100 nM or 1 pM CGRP1", "source_text": "Masoprocol, (nordihydroguaiaretic acid), is a lipoxygenase inhibitor, that has been identified as the active component of Creosote bush extracts. Oral administration of this compound lowers serum NEFA and triglyceride concentrations in rats with fructose-induced hypertriglyceridemia (Gowri et al. 2000, Am. J. Physiol. 279: E593-E600), and decrease blood glucose and triglyceride concentrations in a fat-fed/streptozotocin rat model (Reed et al. 1999, Diabetologia 42: 102-106)."}, "[2]": {"target": "T1, murine ramp 1/C1ins− receptor (Mus musculus, UniProt Q60755+Q9WTJ5)", "T1 construct": "expressed in transfected cells; host or cells: L6 myoblasts (ATCC), transient co-transfection of pcDNA3.1 plasmids", "T1 sequence (Q60755 42-496 isoform Q60755-2 limits assumed)": "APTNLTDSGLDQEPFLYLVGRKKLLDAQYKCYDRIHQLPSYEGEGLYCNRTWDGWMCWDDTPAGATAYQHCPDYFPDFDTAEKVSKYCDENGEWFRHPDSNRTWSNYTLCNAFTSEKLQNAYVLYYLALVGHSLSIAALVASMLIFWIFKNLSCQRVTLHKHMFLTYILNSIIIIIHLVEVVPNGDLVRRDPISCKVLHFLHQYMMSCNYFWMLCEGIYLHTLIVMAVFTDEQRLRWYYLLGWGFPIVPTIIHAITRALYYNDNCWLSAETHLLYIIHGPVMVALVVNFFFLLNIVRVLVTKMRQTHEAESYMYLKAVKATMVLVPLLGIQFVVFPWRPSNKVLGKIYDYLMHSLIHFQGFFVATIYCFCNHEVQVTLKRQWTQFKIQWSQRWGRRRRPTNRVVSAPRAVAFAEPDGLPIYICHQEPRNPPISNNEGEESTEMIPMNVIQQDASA", "T1 sequence (Q9WTJ5 27-148 partner)": "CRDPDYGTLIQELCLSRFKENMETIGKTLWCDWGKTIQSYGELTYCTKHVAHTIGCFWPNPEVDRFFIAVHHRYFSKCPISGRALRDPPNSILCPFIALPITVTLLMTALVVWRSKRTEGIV", "assay": "Radioligand binding and displacement of [3H]amylin in L6 myoblasts co-transfected with murine ramp 1 and C1ins−", "conditions": "for competition with amylin for binding to co-transfected cells: displacement of [3H]amylin, FIG. 9A", "description": "Transfection of L6 myoblasts and cos-7 cells, and analysis of radioligand binding. L6 myoblasts and cos-7 cells were obtained from ATCC. Both cell lines were cultered in Dulbecco's modified Eagle's medium (DMEM; Gibco/BRL, high glucose) supplemented with 10% fetal calf serum (Gibco/BRL, Gaithersburg, Md.), L-glutamine (2 mM), penicillin (100 U/ml; Sigma), streptomycin (100 mg/ml; Sigma), saline (0.85%), under 5% CO2/95% air at 37° C. The day before transfection, cells were trypsinised and seeded into six-well plates at a density of 2.9×10^5 cells/well in the same medium. For transfection, cells were incubated with a mixture comprising 1 μg each of Qiagen-purified (Qiagen, Valencia, Calif.) plasmids containing C1ins− with either ramp 1 or ramp 3, and Fugene reagent (6 μl; Boehringer Mannheim) in Opti-Mem I medium (Gibco/BRL). The complex was added with serum to cells, which were incubated for a further 48 h.\nFor binding experiments, radioligand (either alone or together with stated final concentrations of non-radiolabeled ligands) was dissolved in DMEM containing 0.1% BSA (binding buffer) for 1 h before binding experiments were performed. […] Cells were washed twice with this buffer, then incubated with 1 ml of the same plus radioligand for 4 h at room temperature (21° C.)."}, "soleus muscle [3]": {"system": "soleus muscle", "assay": "Lipid metabolites (free fatty acid, glycerol, triglyceride; enzymatic analysis) in isolated soleus muscle from normally fed rats", "type": "cell-based, rat", "conditions": "1 h"}, "Wistar rats [4]": {"system": "Wistar rats", "assay": "Tissue free fatty acid and triglyceride content following infusion in normal-fed rats", "type": "in vivo, rat", "protocol": "(§1) Surgery. Experiments were performed on male Wistar rats. Animals were randomly assigned to experimental groups as outlined below. Induction and maintenance of surgical anesthesia was by 3-5% halothane and 2L oxygen. An initial blood sample was taken from a tail artery for measurement of baseline levels of blood glucose and lactate, electrolyte, acid base and oxygen status and serum levels of free fatty acids, triglyceride and cholesterol. Immediately following this, the trachea was cannulated and the animal ventilated at 60-70 breaths.min-1 with air supplemented with O2. The respiratory rate and end-tidal pressure (10-15 cmH2O) were adjusted to maintain end-tidal CO2 at 35-40 mmHg. Body temperature was maintained at 37° C. throughout surgery and the experiment by a heating pad. The carotid artery and jugular vein were cannulated with a solid-state blood pressure transducer and a saline filled PE 50 catheter respectively. For the antagonist infusion studies, surgery was similar to above with the alteration being that both the carotid artery and jugular vein were cannulated with saline filled PE 50 catheters. Fluids (saline or hormone dissolved in saline) were delivered to the jugular vein with a Y-connector to join the two lines. The carotid artery line was connected to a blood pressure transducer. Blood samples were taken from this line at time zero (baseline reading), 30 minutes and every 20 minutes until the end of the experiment at 90 minutes.\n(§2) Infusion. […] Blood glucose measurements were taken from tail capillaries at 5-minute intervals throughout the duration of the experiment. At the end of the infusion a terminal blood sample was taken by cardiac puncture and analysed as per the basal sample and also for various metabolites and hormones. Serum and plasma samples were stored at −80° C. until future analysis. Animals were killed by cervical dislocation and harvested tissues (brain, liver, kidney, soleus muscle, extensor digitorum longus muscle, left ventricle, retroperitoneal and epididymal fat pads) snap frozen in liquid N2 and stored at −80° C. until future analysis. For the antagonist studies, the protocols was the same as above with the following changes: Infusion was a combination of antagonist, CGRP or saline."}, "soleus muscle [5]": {"system": "soleus muscle", "assay": "cAMP content of isolated soleus muscle from high fat-fed rats", "type": "cell-based, rat", "protocol": "(§3) Soleus muscle preparation. All experiments were performed according to protocols approved by the Institutional Animal Ethics Committee. 5-6 week-old male Wistar rats (160 g) were kept on a 12:12-h light/dark cycle, and fed and watered ad libitum. Animals were anaesthetised with 50 mg/kg Nembutal (pentobarbitone sodium), then sacrificed by cervical dislocation. Soleus muscles were dissected under oxygenated KHB (118 mM NaCl, 4.75 mM KCl, 1.2 mM MgSO4, 24.8 mM NaHCO3, 1.2 mM KH2PO4, 2.54 mM CaCl2, 10 mM glucose, pH 7.4) and teased into halves, then incubated as described below.\n(§4) For the measurement of cAMP in muscle, isolated soleus strips were incubated with stated concentrations of peptides, then lyophilized and deproteinized. Each strip was placed in 400 μl of 0.5 M HClO4 with 5 mM EDTA (phosphodiesterase inhibitor) and sonicated three times in 20 s bursts. Tubes were heated for 3-5 min in boiling water to coagulate protein, then centrifuged (12,000 g, 4° C., 2 min). Supernatant (300 μl) was taken and the pH adjusted to 7.0 with 75 μl of 2 M NH4OH. The samples were refrigerated (4° C., 2 h) to precipitate proteins, then centrifuged under the same conditions as above and 50 μl taken for cAMP measurement."}, "soleus muscle [6]": {"system": "soleus muscle", "assay": "cAMP content of isolated soleus muscle from normal fed rats", "type": "cell-based, rat", "conditions": "normal fed; 10-fold molar excess of antagonist; CGRP alone 6.9±0.8", "protocol": "as §3, §4"}, "Wistar rats [7]": {"system": "Wistar rats", "assay": "Serum hormones and blood metabolites following acute CGRP infusion in anaesthetised normal-fed rats", "type": "in vivo, rat", "conditions": "end vs commencement of infusion", "protocol": "as §1\nas §2, with “analysis.” for “analysis. For the antagonist studies, the protocols was the same as above with the following changes: Infusion was a combination of antagonist, CGRP or saline.”"}, "soleus muscle [8]": {"system": "soleus muscle", "assay": "Total glycogen content in isolated incubated soleus muscle", "type": "cell-based, rat", "conditions": "isolated rat soleus muscle", "protocol": "as §3\nTotal glycogen content was measured in muscle strips by lyophilization followed by hydrolysis of glycogen to D-glucose with amyloglucosidase (Sigma) 20 U/100 ml in 0.2 M sodium acetate/acetic acid buffer, pH 4.8, and expressed as μmol ‘glucosyl’ units/g dry muscle weight. Free glucose in supernatant solutions was measured with a glucose/lactate analyzer (YSI 2300STAT, Yellow Springs Corporation) using D-glucose oxidase immobilized enzyme chemistry.\n(§5) Data analysis. One way ANOVA, Dunnett's Multiple Comparisons Test, and unpaired Student's t-tests were used to calculate the statistical significance of differences, as appropriate. Dose-response curves were fitted to a sigmoidal dose-response algorithm, as follows: Y=minimum+(maximum−minimum)/([…] log ^(EC50^−X), for 2-DOG-uptake; and by a four parameter logistic model, Y=minimum+(maximum−minimum)/(1+10 log ^(EC50^−X)Hill-Coefficient) for total glycogen and [^14C]glucose incorporation. Calculations were performed using Prism v2.0 (GraphPad Software, San Diego, Calif.) to derive values for half-maximal effective concentration (EC50). Displacement curves derived for competition of bound radioligand with cold ligand in transfected cells were calculated according to a one site competition fit using Prism v2.0."}, "soleus muscle [9]": {"system": "soleus muscle", "assay": "Incorporation of D[14C(U)]glucose into glycogen in isolated incubated soleus muscle", "type": "cell-based, rat", "conditions": "isolated rat soleus muscle", "protocol": "as §3\nMeasurement of glycogen metabolism in isolated, incubated soleus muscle. […]. Glycogen was precipitated overnight at −20° C. with 96% ethanol (1.2 ml), followed by centrifugation at 8,000 g (15 min, 4° C.). Pellets were washed twice with the same amount of ethanol then dissolved in water (0.6 ml). Aliquots (0.3 ml) were analyzed for D[^14C(U)] glucose content by liquid scintillation spectrometry.\nas §5"}},
  "note": "Where no end group is shown, it is not given here.",
  "data": [
    {"molecule": "CC(Cc1ccc(O)c(O)c1)C(C)Cc1ccc(O)c(O)c1", "note": "(stereo not shown) [masoprocol, nordihydroguaiaretic acid]", "values": [
      {"measurement": "effect on CGRP1-evoked NEFA elevation", "setting": "soleus muscle [1]", "result": "completely reversed NEFA elevation"},
      {"measurement": "effect on CGRP1-evoked decrements in triglyceride content", "setting": "soleus muscle [1]", "result": "completely reversed decrements in soleus triglyceride content"}
    ]},
    {"molecule": "Human adrenomedullin", "values": [
      {"measurement": "competition with amylin for binding to co-transfected cells", "setting": "[2]", "result": "competed only very weakly"}
    ]},
    {"molecule": "human CGRP1-(8-37) [CGRP-(8-37)]", "values": [
      {"measurement": "free fatty acid concentration in conjunction with 1 pM CGRP", "setting": "soleus muscle [3]; 100 pM antagonist + 1 pM CGRP, CGRP alone 166±18", "result": "68±8", "unit": "nmol/g"},
      {"measurement": "free fatty acid content in conjunction with 100 nM CGRP", "setting": "soleus muscle [3]; 10 μM antagonist or maximally stimulating insulin (23.7 nM) + 100 nM CGRP, CGRP alone 334±52", "result": "90 ± 7", "unit": "nmol/g"},
      {"measurement": "free fatty acid content in conjunction with 100 nM amylin", "setting": "soleus muscle [3]; 10 μM antagonist or maximally stimulating insulin (23.7 nM) + 100 nM amylin, amylin alone 216±26", "result": "65 ± 8", "unit": "nmol/g"},
      {"measurement": "FFA content, Heart", "setting": "Wistar rats [4]; CGRP 100 pmol/kg/min 1 h, CGRP-(8-37) 10 nmol/kg/min 90 minutes, control 0.8 ± 0.2", "result": "0.9 ± 0.2", "unit": "µmol/g"},
      {"measurement": "FFA content, Liver", "setting": "Wistar rats [4]; same infusions, control 0.1 ± 0.01", "result": "0.06 ± 0.04", "unit": "µmol/g"},
      {"measurement": "FFA content, Soleus Muscle", "setting": "Wistar rats [4]; same infusions, control 0.2 ± 0.02", "result": "0.1 ± 0.02", "unit": "µmol/g"},
      {"measurement": "FFA content, Kidney", "setting": "Wistar rats [4]; same infusions, control 0.8 ± 0.1", "result": "0.8 ± 0.1", "unit": "µmol/g"},
      {"measurement": "FFA content, Epi Adipose", "setting": "Wistar rats [4]; same infusions, control 2.1 ± 0.5", "result": "2.2 ± 0.6", "unit": "µmol/g"},
      {"measurement": "triglyceride content, Kidney", "setting": "Wistar rats [4]; same infusions, control 2.8 ± 0.5", "result": "2.5 ± 0.4", "unit": "µmol/g"},
      {"measurement": "triglyceride content, Heart", "setting": "Wistar rats [4]; same infusions, control 2.9 ± 0.4", "result": "3.1 ± 0.4", "unit": "µmol/g"},
      {"measurement": "triglyceride content, Soleus Muscle", "setting": "Wistar rats [4]; same infusions, control 3.7 ± 0.4", "result": "4.3 ± 0.4", "unit": "µmol/g"},
      {"measurement": "triglyceride content, Liver", "setting": "Wistar rats [4]; same infusions, control 4.3 ± 0.3", "result": "5.8 ± 0.4", "unit": "µmol/g"},
      {"measurement": "triglyceride content, Epi Adipose", "setting": "Wistar rats [4]; same infusions, control 5.1 ± 1.2", "result": "4.9 ± 1", "unit": "µmol/g"},
      {"measurement": "cAMP content with 100 nM CGRP1 plus antagonist", "setting": "soleus muscle [5]; 10-fold molar excess of antagonist", "result": "5.4 ± 0.4", "unit": "pmol/mg"},
      {"measurement": "cAMP content with 1 pM CGRP plus antagonist", "setting": "soleus muscle [5]; 10-molar excess of antagonist, CGRP alone 8.6±0.4", "result": "4.7±0.5", "unit": "pmol/mg"},
      {"measurement": "cAMP content with 100 nM CGRP plus antagonist", "setting": "soleus muscle [6]", "result": "4.8 ± 0.2", "unit": "pmol/mg"},
      {"measurement": "Change in [serum] Triglyceride", "setting": "Wistar rats [7]; CGRP 60 min, CGRP-(8-37) 90 min, control 0.2", "result": 0.9, "unit": "mmol/L"},
      {"measurement": "Change in [serum] FFA", "setting": "Wistar rats [7]; control −0.1", "result": -0.3, "unit": "mmol/L"},
      {"measurement": "Change in Lactate", "setting": "Wistar rats [7]; heparinised whole blood, control 0.3", "result": 0.02, "unit": "mmol/L"}
    ]},
    {"molecule": "rat calcitonin (CGNLSTCMLGTYTQDLNKFHTFPQTSIGVGAP; ends and bridges not checked; cysteine pairing not given here) [calcitonin family peptide from Bachem]", "values": [
      {"measurement": "competition with amylin for binding to co-transfected cells", "setting": "[2]", "result": "competed only very weakly"}
    ]},
    {"molecule": "salmon calcitonin", "values": [
      {"measurement": "EC50", "setting": "soleus muscle [8]; absence of insulin", "result": 1.7, "unit": "nM"},
      {"measurement": "EC50", "setting": "soleus muscle [8]; human insulin 23.7 nM", "result": 0.6, "unit": "nM"},
      {"measurement": "EC50", "setting": "soleus muscle [9]; absence of insulin", "result": 0.1, "unit": "nM"},
      {"measurement": "EC50", "setting": "soleus muscle [9]; human insulin 23.7 nM", "result": 0.9, "unit": "nM"},
      {"measurement": "specific binding of [3H]radioligand to L6 myoblasts co-transfected with ramp 1 and C1ins−", "setting": "[2]; 10 nM radioligand, FIG. 8D", "result": "significant increases in specific binding"}
    ]}
  ]
}
